Experimental data: patent US20160176867A1, “MODIFIED BET-PROTEIN-INHIBITING DIHYDROQUINOXALINONES AND DIHYDROPYRIDOPYRAZINONES” (BAYER PHARMA AKTIENGESELLSCHAFT, priority 2013, published 2016)

How the values were obtained:
[1] = biological target: T1, BRD4 bromo domain 2 [BRD4(2)] (Homo sapiens, UniProt O60885); assay: BRD4/acetylated peptide H4 binding assay (TR-FRET), BRD4 bromo domain 2; settings: inhibition of BRD4(2)/Ac-H4 peptide interaction
T1 construct: N-terminally His6-tagged BRD4(2) (amino acids 357-445); made in house; host or cells: E. coli
Outline: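 IC50 comes from a 4-parameter fit over 0.1 nM–20 μM in duplicate, normalised to DMSO and no-protein controls. TR-FRET (Eu-streptavidin/anti-His-XL665) tracks His-tagged BRD4(2) 357-445 at 100 nM binding Ac-H4 peptide in HEPES pH 7.5 buffer. Incubation was 1 h at 22 °C, then at 4 °C ≥3 h up to overnight.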

[2] = system: MOLP-8 cells; assay: Cell proliferation assay (alamarBlue), MOLP-8; assay type: cell-based; settings: Homo sapiens; MOLP-8 (multiple myeloma), 120 hours
Description: (§1) In accordance with the invention, the ability of the substances to inhibit cell proliferation was determined. Cell viability was determined by means of the alamarBlue® reagent (Invitrogen) in a Victor X3 Multilabel Reader (Perkin Elmer). The excitation wavelength was 530 nm and the emission wavelength […].
The MOLP-8 cells (DSMZ, ACC 569) were sown at a concentration of 4000 cells/well in 100 μl of growth medium (RPMI1640, 20% FCS) on 96-well microtitre plates.
(§2) After overnight incubation at 37° C., the fluorescence values were determined (CI values). Then the plates were treated with various substance dilutions (1E-5 M, 3E-6 M, 1E-6 M, 3E-7 M, 1E-7 M, 3E-8 M, 1E-8 M) and incubated at 37° C. over 96 hours (MOLM-13, B16F10, CHL-1 cells) or 120 hours (MOLP-8 cells). Subsequently, the fluorescence values were determined (CO values). For the data analysis, the CI values were subtracted from the CO values and the results were compared between cells which had been treated with various dilutions of the substance or only with buffer solution. The IC50 values (substance concentration needed for 50% inhibition of cell proliferation) were calculated therefrom.

[3] = system: B16F10 cells; assay: Cell proliferation assay (alamarBlue), B16F10; assay type: cell-based; settings: Mus musculus, B16-F10; B16F10 (melanoma, BRAF wild-type), 96 hours
Description: as §1
The B16F10 cells (ATCC, CRL-6475) were sown at a concentration of 300-500 cells/well in 100 μl of growth medium (DMEM with phenol red, 10% FCS) on 96-well microtitre plates.
as §2

## C[C@@H]1C(=O)N(C)c2ccc(Nc3cccc(S(=O)(=O)NCC4CCN(C)CC4)c3)nc2N1C1CCOCC1 [Example 44, 3-{[(3R)-1,3-dimethyl-2-oxo-4-(tetrahydro-2H-pyran-4-yl)-1,2,3,4-tetrahydropyrido[2,3-b]pyrazin-6-yl]amino}-N-[(1-methylpiperidin-4-yl)methyl]benzene-sulphonamide]
[1]
  IC50: 88 nM
[2]
  IC50: 335 nM
[3]
  IC50: 944 nM

## CC(C)CN1c2nc(Nc3cccc(S(=O)(=O)N[C@H]4CC[C@H](N5CCN(CC6CC6)CC5)CC4)c3)ccc2N(C)C(=O)[C@H]1C [Example 45, N-{trans-4-[4-(cyclopropylmethyl)-piperazin-1-yl]cyclohexyl}-3-{[(3R)-4-isobulyl-1,3-dimethyl-2-oxo-1,2,3,4-tetrahydropyrido[2,3-b]pyrazin-6-yl]amino}-benzenesulphonamide]
[1]
  IC50: 148 nM
[2]
  IC50: 67 nM
[3]
  IC50: 393 nM

## COc1ccc(S(=O)(=O)N2CCN(C)CC2)cc1Nc1ccc2c(n1)N(C1CCN(C)CC1)[C@H](C)C(=O)N2C [Example 46, (3R)-6-({2-methoxy-5-[(4-methylpiperazin-1-yl)sulphonyl]phenyl}-amino)-1,3-dimethyl-4-(1-methylpiperidin-4-yl)-3,4-dihydropyrido[2,3-b]pyrazin-2(1H)-one]
[1]
  IC50: 69 nM
[2]
  IC50: 33 nM
[3]
  IC50: 135 nM

## C[C@@H]1C(=O)N(C)c2ccc(Nc3cccc(S(=O)(=O)N4CCOCC4)c3)nc2N1C1CCN(C)CC1 [Example 47, (3R)-1,3-dimethyl-4-(1-methylpiperidin-4-yl)-6-{[3-(morpholin-4-ylsulphonyl)phenyl]-amino}-3-4-dihydropyrido-[2,3-b]pyrazin-2(1H)-one]
[1]
  IC50: 59 nM
[2]
  IC50: 25 nM
[3]
  IC50: 188 nM

## C[C@@H]1C(=O)N(C)c2ccc(Nc3cccc(S(=O)(=O)NC4CCN(C)CC4)c3)nc2N1C1CCCCCC1 [Example 48, 3-{[(3R)-4-cycloheptyl-1,3-dimethyl-2-oxo-1,2,3,4-tetrahydropyrido-[2,3-b]pyrazin-6-yl]amino}-N-(1-methylpiperidin-4-yl)benzenesulphonamide]
[1]
  IC50: 101 nM
[2]
  IC50: 197 nM
[3]
  IC50: 586 nM

## C[C@@H]1C(=O)N(C)c2ccc(Nc3cccc(S(=O)(=O)N4CCN(C)CC4)c3)nc2N1C1CCN(C)CC1 [Example 50, (3R)-1,3-dimethyl-6-({3-[(4-methylpiperazin-1-yl)sulphonyl]phenyl}-amino)-4-(1-methyl-piperidin-4-yl)-3,4-dihydropyrido[2,3-b]pyrazin-2(1H)-one]
[1]
  IC50: 121 nM
[2]
  IC50: 140 nM
[3]
  IC50: 727 nM

## CC(C)N1c2nc(Nc3cccc(S(=O)(=O)NC4CCN(C)CC4)c3)ccc2N(C)C(=O)[C@H]1C [Example 51, 3-{[(3R)-4-isopropyl-1,3-dimethyl-2-oxo-1,2,3,4-tetrahydropyrido[2,3-b]pyrazin-6-yl]amino}-N-(1-methylpiperidin-4-yl)benzenesulphonamide]
[1]
  IC50: 99 nM
[2]
  IC50: 58 nM
[3]
  IC50: 423 nM

## C[C@@H]1C(=O)N(C)c2ccc(Nc3cccc(S(=O)(=O)N[C@H]4CC[C@H](N5CCN(CC6CC6)CC5)CC4)c3)nc2N1C1CCN(C(=O)OC(C)(C)C)CC1 [Example 52, tert-butyl 4-[(3R)-6-{[3-({trans-4-[4-(cyclo-propylmethyl)piperazin-1-yl]cyclohexyl}-sulphamoyl)phenyl]amino}-1,3-dimethyl-2-oxo-2,3-dihydropyrido[2,3-b]pyrazin-4(1H)-yl]piperidine-1-carboxylate]
[1]
  IC50: 86 nM
[2]
  IC50: 133 nM
[3]
  IC50: 569 nM

## C[C@@H]1C(=O)N(C)c2ccc(N(C)c3cccc(S(=O)(=O)N(C)C)c3)nc2N1C1CCOCC1 [Example 54, 3-{[(3R)-1,3-dimethyl-2-oxo-4-(tetrahydro-2H-pyran-4-yl)-1,2,3,4-tetrahydropyrido[2,3-b]pyrazin-6-yl](methyl)-amino}-N,N-dimethyl-benzenesulphonamide]
[1]
  IC50: 62 nM
[2]
  IC50: 247 nM
[3]
  IC50: 164 nM

## CC(C)N1c2nc(Nc3cccc(S(=O)(=O)NCCN(C)C)c3)ccc2N(C)C(=O)[C@H]1C [Example 55, N-[2-(dimethylamino)-ethyl]-3-{[(3R)-4-isopropyl-1,3-dimethyl-2-oxo-1,2,3,4-tetrahydro-pyrido[2,3-b]pyrazin-6-yl]amino}benzene-sulphonamide]
[1]
  IC50: 149 nM
[2]
  IC50: 48 nM
[3]
  IC50: 312 nM

## C[C@@H]1C(=O)N(C)c2ccc(Nc3ccc4c(c3)S(=O)(=O)NC4)nc2N1C1CCOCC1 [Example 56, (3R)-6-[(1,1-dioxido-2,3-dihydro-1,2-benzothiazol-6-yl)amino]-1,3-dimethyl-4-(tetrahydro-2H-pyran-4-yl)-3,4-dihydropyrido[2,3-b]pyrazin-2(1H)-one]
[1]
  IC50: 77 nM
[2]
  IC50: 214 nM
[3]
  IC50: 488 nM

## C[C@@H]1C(=O)N(C)c2ccc(Nc3cccc(S(=O)(=O)NC4CCN(C)CC4)c3)nc2N1C1CCN(C(=O)OC(C)(C)C)CC1 [Example 57, tert-butyl 4-[(3R)-1,3-dimethyl-6-({3-[(1-methylpiperidin-4-yl)sulphamoyl]phenyl}-amino)-2-oxo-2,3-dihydro-pyrido[2,3-b]pyrazin-4(1H)-yl]piperidine-1-carboxylate]
[1]
  IC50: 177 nM
[2]
  IC50: 151 nM
[3]
  IC50: 531 nM

## C[C@@H]1C(=O)N(C)c2ccc(Nc3cccc(S(N)(=O)=O)c3)nc2N1C1CCOCC1 [Example 58, 3-{[(3R)-1,3-dimethyl-2-oxo-4-(tetrahydro-2H-pyran-4-yl)-1,2,3,4-tetrahydropyrido[2,3-b]pyrazin-6-yl]amino}-benzenesulphonamide]
[1]
  IC50: 103 nM
[2]
  IC50: 268 nM
[3]
  IC50: 613 nM

## C[C@@H]1C(=O)N(C)c2ccc(Nc3cccc(S(=O)(=O)NCCN(C)C)c3)nc2N1C1CCN(C(=O)OC(C)(C)C)CC1 [Example 59, tert-butyl 4-[(3R)-6-[(3-{[2-(dimethylamino)ethyl]-sulphamoyl}phenyl)amino]-1,3-dimethyl-2-oxo-2,3-dihydropyrido[2,3-b]pyrazin-4(1H)-yl]piperidine-1-carboxylate]
[1]
  IC50: 77 nM
[2]
  IC50: 297 nM
[3]
  IC50: 1140 nM

## C[C@@H]1C(=O)N(C)c2ccc(Nc3cccc(C(=O)N[C@H]4CC[C@H](N5CCN(CC6CC6)CC5)CC4)c3)nc2N1Cc1ccccc1 [Example 72, 3-{[(3R)-4-benzyl-1,3-dimethyl-2-oxo-1,2,3,4-tetrahydropyrido[2,3-b]pyrazin-6-yl]amino}-N-{trans-4-[4-(cyclo-propylmethyl)piperazin-1-yl]cyclohexyl}benzamide]
[1]
  IC50: 256 nM
[2]
  IC50: 122 nM
[3]
  IC50: 396 nM

## C[C@@H]1C(=O)N(C)c2ccc(Nc3cccc(C(=O)NC4CCN(C)CC4)c3)nc2N1Cc1ccccc1 [Example 73, 3-{[(3R)-4-benzyl-1,3-dimethyl-2-oxo-1,2,3,4-tetrahydropyrido[2,3-b]pyrazin-6-yl]amino}-N-(1-methylpiperidin-4-yl)benzamide]
[1]
  IC50: 86 nM
[2]
  IC50: 63 nM
[3]
  IC50: 468 nM

## C[C@@H]1C(=O)N(C)c2ccc(Nc3cccc(C(=O)NCCN4CCN(C)CC4)c3)nc2N1Cc1ccccc1 [Example 74, 3-{[(3R)-4-benzyl-1,3-dimethyl-2-oxo-1,2,3,4-tetrahydropyrido[2,3-b]pyrazin-6-yl]amino}-N-[2-(4-methylpiperazin-1-yl)ethyl]benzamide]
[1]
  IC50: 91 nM
[2]
  IC50: 82 nM
[3]
  IC50: 491 nM
